Test results published in ChEMBL document CHEMBL5244223, “l,8-Naphthalimide based DNA intercalators and anticancer agents. A systematic review from 2007 to 2017” (Eur J Med Chem, 2018).

What was measured:
Format in all cases: functional, cell-based
HepG2 = test: Antiproliferative activity against human HepG2 cells assessed as inhibition of cell proliferation incubated for 48 hrs by MTT assay; conditions: HepG2, 48 h
HCT-116 = test: Antiproliferative activity against human HCT-116 cells assessed as inhibition of cell proliferation incubated for 48 hrs by MTT assay; conditions: HCT-116, 48 h
SMMC-7721 = test: Antiproliferative activity against human SMMC-7721 cells assessed as inhibition of cell proliferation incubated for 48 hrs by MTT assay; conditions: SMMC-7721, 48 h
K562 = test: Antiproliferative activity against human K562 cells assessed as inhibition of cell proliferation incubated for 48 hrs by MTT assay; conditions: K562, 48 h
MDA-MB-231 = test: Antiproliferative activity against human MDA-MB-231 cells assessed as inhibition of cell proliferation incubated for 48 hrs by MTT assay; conditions: MDA-MB-231, 48 h
A549 = test: Cytotoxicity against human A549 cells assessed as inhibition of cell growth incubated for 48 hrs by MTT assay; conditions: A549, 48 h
HeLa = test: Cytotoxicity against human HeLa cells assessed as inhibition of cell growth incubated for 48 hrs by MTT assay

Question: CCOC(=O)c1ccc2c3c(cccc13)C(=O)N(CCN(C)C)C2=O was tested. Which IC50 (HepG2) did it give?
Answer: 25.9 µM

Question: And the IC50 (HCT-116)?
Answer: > 50 µM

Question: What about the IC50 (SMMC-7721) of the same compound?
Answer: 13.7 µM

Question: And the IC50 (K562)?
Answer: > 50 µM

Question: How did the IC50 (HepG2) turn out when NCCCNCCCNCC(=O)NCCCN1C(=O)c2cccc3cccc(c23)C1=O was run?
Answer: 2.86 µM

Question: What about the IC50 (HCT-116) of the same compound?
Answer: 2.86 µM

Question: What about the IC50 (MDA-MB-231) of the same compound?
Answer: 2.86 µM

Question: And the IC50 (K562)?
Answer: 2.86 µM

Question: CN(C)CCN1C(=O)c2cccc3c2c(cc2c(NCCCCN)ncnc23)C1=O was tested. Which IC50 (HepG2) did it give?
Answer: 1.12 µM

Question: What about the IC50 (MDA-MB-231) of the same compound?
Answer: 1.12 µM

Question: And the IC50 (SMMC-7721)?
Answer: 1.12 µM

Question: With CCOc1ccccc1-c1cc(C(F)(F)F)nn1-c1ccc2c3c(cccc13)C(=O)N(CCN(C)C)C2=O as the compound, how does the IC50 (A549) read?
Answer: 5.06 µM

Question: And the IC50 (HeLa)?
Answer: 5.06 µM

Question: How did the IC50 (A549) turn out when CCOc1cccc(-c2cc(C(F)(F)F)nn2-c2ccc3c4c(cccc24)C(=O)N(CCN(C)C)C3=O)c1 was run?
Answer: 5.06 µM

Question: And the IC50 (HeLa)?
Answer: 5.06 µM

Question: Which results are given for NCCCN1C(=O)c2cccc3cccc(c23)C1=O?
Answer: IC50 (HepG2): 1.61 µM; IC50 (SMMC-7721): 1.61 µM

Question: What does the source list for CCCCOc1cccc(-c2cc(C(F)(F)F)nn2-c2ccc3c4c(cccc24)C(=O)N(CCN(C)C)C3=O)c1?
Answer: IC50 (A549): 5.06 µM; IC50 (HeLa): 5.06 µM

Question: With CCCOc1ccc(-c2cc(C(F)(F)F)nn2-c2ccc3c4c(cccc24)C(=O)N(CCN(C)C)C3=O)cc1 as the compound, how does the IC50 (A549) read?
Answer: 5.06 µM

Question: What about the IC50 (HeLa) of the same compound?
Answer: 5.06 µM

Question: NCCCNCCCN1C(=O)c2cccc3cccc(c23)C1=O was tested. Which IC50 (HepG2) did it give?
Answer: 1.61 µM

Question: What about the IC50 (SMMC-7721) of the same compound?
Answer: 1.61 µM

Question: COc1cc(-c2cc(C(F)(F)F)nn2-c2ccc3c4c(cccc24)C(=O)N(CCN(C)C)C3=O)cc(OC)c1OC was tested. Which IC50 (A549) did it give?
Answer: 5.06 µM

Question: What about the IC50 (HeLa) of the same compound?
Answer: 5.06 µM

Question: Which IC50 (A549) does the source give for CCCOc1cc(OCCC)cc(-c2cc(C(F)(F)F)nn2-c2ccc3c4c(cccc24)C(=O)N(CCN(C)C)C3=O)c1 here?
Answer: 5.06 µM

Question: What about the IC50 (HeLa) of the same compound?
Answer: 5.06 µM

Question: How did the IC50 (HepG2) turn out when CN(C)CCN1C(=O)c2cccc3c2c(cc2c(NCCCN4CCOCC4)ncnc23)C1=O was run?
Answer: 1.12 µM

Question: And the IC50 (MDA-MB-231)?
Answer: 1.12 µM

Question: What about the IC50 (SMMC-7721) of the same compound?
Answer: 1.12 µM

Question: Which IC50 (A549) does the source give for COc1ccc(-c2cc(C(F)(F)F)nn2-c2ccc3c4c(cccc24)C(=O)N(CCN(C)C)C3=O)cc1 here?
Answer: 5.06 µM

Question: What about the IC50 (HeLa) of the same compound?
Answer: 5.06 µM

Question: For COc1ccc(-c2cc(C(F)(F)F)nn2-c2ccc3c4c(cccc24)C(=O)N(CCN(C)C)C3=O)cc1OC, which IC50 (A549) is on record?
Answer: 5.06 µM

Question: And the IC50 (HeLa)?
Answer: 5.06 µM

Question: CN(C)CCNc1ncnc2c1cc1c3c(cccc32)C(=O)N(CCN(C)C)C1=O was tested. Which IC50 (HepG2) did it give?
Answer: 1.12 µM

Question: And the IC50 (MDA-MB-231)?
Answer: 1.12 µM

Question: What about the IC50 (SMMC-7721) of the same compound?
Answer: 1.12 µM

Question: What does the source list for CCCCCCCCCCCCCCOC(=O)c1ccc2c3c(cccc13)C(=O)N(CCN(C)C)C2=O?
Answer: IC50 (HepG2): > 50 µM; IC50 (HCT-116): > 50 µM; IC50 (SMMC-7721): > 50 µM; IC50 (K562): > 50 µM

Question: For CCCCCCOC(=O)c1ccc2c3c(cccc13)C(=O)N(CCN(C)C)C2=O, which IC50 (HepG2) is on record?
Answer: > 50 µM

Question: And the IC50 (HCT-116)?
Answer: > 50 µM

Question: What about the IC50 (SMMC-7721) of the same compound?
Answer: > 50 µM

Question: What about the IC50 (K562) of the same compound?
Answer: > 50 µM

Question: Which results are given for O=C1c2cccc3c2c(cc2c(=O)[nH]cnc23)C(=O)N1CCCCN1CCOCC1?
Answer: IC50 (HepG2): 2.64 µM; IC50 (MDA-MB-231): 2.64 µM; IC50 (SMMC-7721): 2.64 µM

Question: What does the source list for CCCCOc1cc(OCCCC)cc(-c2cc(C(F)(F)F)nn2-c2ccc3c4c(cccc24)C(=O)N(CCN(C)C)C3=O)c1?
Answer: IC50 (A549): 5.06 µM; IC50 (HeLa): 5.06 µM

Question: With CCCOc1cccc(-c2cc(C(F)(F)F)nn2-c2ccc3c4c(cccc24)C(=O)N(CCN(C)C)C3=O)c1 as the compound, how does the IC50 (A549) read?
Answer: 5.06 µM

Question: And the IC50 (HeLa)?
Answer: 5.06 µM

Question: Which results are given for COc1ccccc1-c1cc(C(F)(F)F)nn1-c1ccc2c3c(cccc13)C(=O)N(CCN(C)C)C2=O?
Answer: IC50 (A549): 5.06 µM; IC50 (HeLa): 5.06 µM

Question: Which results are given for CCCCCCCCOC(=O)c1ccc2c3c(cccc13)C(=O)N(CCN(C)C)C2=O?
Answer: IC50 (HepG2): > 50 µM; IC50 (HCT-116): > 50 µM; IC50 (SMMC-7721): > 50 µM; IC50 (K562): > 50 µM

Question: With COc1cccc(-c2cc(C(F)(F)F)nn2-c2ccc3c4c(cccc24)C(=O)N(CCN(C)C)C3=O)c1 as the compound, how does the IC50 (A549) read?
Answer: 5.06 µM

Question: What about the IC50 (HeLa) of the same compound?
Answer: 5.06 µM

Question: How did the IC50 (HepG2) turn out when CCCCCOC(=O)c1ccc2c3c(cccc13)C(=O)N(CCN(C)C)C2=O was run?
Answer: > 50 µM

Question: And the IC50 (HCT-116)?
Answer: > 50 µM

Question: What about the IC50 (SMMC-7721) of the same compound?
Answer: > 50 µM

Question: What about the IC50 (K562) of the same compound?
Answer: > 50 µM

Question: How did the IC50 (A549) turn out when CCOc1ccc(-c2cc(C(F)(F)F)nn2-c2ccc3c4c(cccc24)C(=O)N(CCN(C)C)C3=O)cc1 was run?
Answer: 5.06 µM

Question: What about the IC50 (HeLa) of the same compound?
Answer: 5.06 µM

Question: What does the source list for CCCCOC(=O)c1ccc2c3c(cccc13)C(=O)N(CCN(C)C)C2=O?
Answer: IC50 (HepG2): > 50 µM; IC50 (HCT-116): > 50 µM; IC50 (SMMC-7721): > 50 µM; IC50 (K562): > 50 µM

Question: Which IC50 (HepG2) does the source give for NCCCNCCCN1C(=O)c2cccc3c2c(cc2c(=O)[nH]cnc23)C1=O here?
Answer: 2.64 µM

Question: And the IC50 (MDA-MB-231)?
Answer: 2.64 µM

Question: And the IC50 (SMMC-7721)?
Answer: 2.64 µM

Question: What does the source list for CCCCOc1ccccc1-c1cc(C(F)(F)F)nn1-c1ccc2c3c(cccc13)C(=O)N(CCN(C)C)C2=O?
Answer: IC50 (A549): 5.06 µM; IC50 (HeLa): 5.06 µM

Question: What does the source list for Cc1ccc(-c2cc(C(F)(F)F)nn2-c2ccc3c4c(cccc24)C(=O)N(CCN(C)C)C3=O)cc1?
Answer: IC50 (A549): 5.06 µM; IC50 (HeLa): 5.06 µM
